From patent US12226424B2, “Target protein degradation compounds, their anti-tumor use, their intermediates and use of intermediates” (ShanghaiTech University, priority 2018, dated 2025)

Tests used:
BCR-ABL = BCR-ABL (Homo sapiens, UniProt P00519); assay: Western-blot half-degradation concentration (DC50) / degradation of BCR-ABL in K562 cells; conditions: read-out: DC50 (nM)/K562 cell line, BCR-ABL protein degradation, 24 hours, Western-blot
[1] = system: K562 cells (BCR-ABL positive); assay: Half inhibitory concentration (IC50) on tumor cells, CCK-8, K562; conditions: Homo sapiens, K562, 48 h, read-out: IC50 (nM)/K562 cell line
SR cells = assay: Half inhibitory concentration (IC50) on ALK-positive SR cell proliferation (CCK-8); format: cell-based; conditions: Homo sapiens; SR cells, 72 h drug treatment, CCK-8; read-out: IC50 (nM)/ SR cell line
Procedure, shortened: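 SR cells seeded at 10,000 cells/well in RPMI1640 and treated with PROTAD compounds at 10 concentrations (top 10 μM, 5-fold dilutions) for 72 h at 37° C, 5% CO2. Viability read by CCK-8 (2 h) at OD450; DMSO as negative control.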

ALK protein = ALK protein (Homo sapiens, UniProt Q9UM73); assay: Western-blot half degradation concentration (DC50) of ALK protein in SR cells; format: cell-based; conditions: 24 h drug treatment; for DC50: read-out: DC50 (nM)/ SR cell line
Method: ALK-positive SR cells (human large cell immunoblastic lymphoma) were purchased from the American Type Culture Collection (ATCC); H3122 cells (human non-small cell lung cancer) were from the Shanghai University of Science and Technology Lin Haifan's research group.
The cells used in this present disclosure were cultured in a 37° C. incubator containing 5% CO2.
DC50 (drug concentration corresponding to protein degradation to 50%) calculation: according to the gray value of the corresponding Western blotting band after drug treatment, fitting the relationship curve between drug concentration and gray value to calculate the drug concentration range corresponding to half of the gray value.

Sequence of ALK protein (Q9UM73 with tags, fused parts or gaps): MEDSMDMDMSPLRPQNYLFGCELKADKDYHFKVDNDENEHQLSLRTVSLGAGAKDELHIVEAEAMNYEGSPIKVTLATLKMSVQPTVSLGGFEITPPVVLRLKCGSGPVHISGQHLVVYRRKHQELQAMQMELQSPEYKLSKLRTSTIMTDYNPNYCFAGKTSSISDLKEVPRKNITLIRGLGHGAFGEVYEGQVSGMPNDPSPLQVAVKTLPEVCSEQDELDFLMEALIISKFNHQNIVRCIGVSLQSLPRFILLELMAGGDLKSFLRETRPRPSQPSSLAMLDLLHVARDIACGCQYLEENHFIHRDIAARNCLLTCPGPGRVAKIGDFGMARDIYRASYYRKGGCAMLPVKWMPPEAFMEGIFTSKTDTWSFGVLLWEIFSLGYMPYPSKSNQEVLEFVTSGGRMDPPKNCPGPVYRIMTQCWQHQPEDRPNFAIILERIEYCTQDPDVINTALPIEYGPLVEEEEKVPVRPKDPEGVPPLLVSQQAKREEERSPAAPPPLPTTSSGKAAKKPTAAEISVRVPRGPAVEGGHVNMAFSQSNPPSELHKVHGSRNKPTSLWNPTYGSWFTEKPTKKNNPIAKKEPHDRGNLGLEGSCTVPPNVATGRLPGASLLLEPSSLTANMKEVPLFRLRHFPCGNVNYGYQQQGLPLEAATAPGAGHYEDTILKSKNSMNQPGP
Sequence of BCR-ABL (P00519 with tags, fused parts or gaps): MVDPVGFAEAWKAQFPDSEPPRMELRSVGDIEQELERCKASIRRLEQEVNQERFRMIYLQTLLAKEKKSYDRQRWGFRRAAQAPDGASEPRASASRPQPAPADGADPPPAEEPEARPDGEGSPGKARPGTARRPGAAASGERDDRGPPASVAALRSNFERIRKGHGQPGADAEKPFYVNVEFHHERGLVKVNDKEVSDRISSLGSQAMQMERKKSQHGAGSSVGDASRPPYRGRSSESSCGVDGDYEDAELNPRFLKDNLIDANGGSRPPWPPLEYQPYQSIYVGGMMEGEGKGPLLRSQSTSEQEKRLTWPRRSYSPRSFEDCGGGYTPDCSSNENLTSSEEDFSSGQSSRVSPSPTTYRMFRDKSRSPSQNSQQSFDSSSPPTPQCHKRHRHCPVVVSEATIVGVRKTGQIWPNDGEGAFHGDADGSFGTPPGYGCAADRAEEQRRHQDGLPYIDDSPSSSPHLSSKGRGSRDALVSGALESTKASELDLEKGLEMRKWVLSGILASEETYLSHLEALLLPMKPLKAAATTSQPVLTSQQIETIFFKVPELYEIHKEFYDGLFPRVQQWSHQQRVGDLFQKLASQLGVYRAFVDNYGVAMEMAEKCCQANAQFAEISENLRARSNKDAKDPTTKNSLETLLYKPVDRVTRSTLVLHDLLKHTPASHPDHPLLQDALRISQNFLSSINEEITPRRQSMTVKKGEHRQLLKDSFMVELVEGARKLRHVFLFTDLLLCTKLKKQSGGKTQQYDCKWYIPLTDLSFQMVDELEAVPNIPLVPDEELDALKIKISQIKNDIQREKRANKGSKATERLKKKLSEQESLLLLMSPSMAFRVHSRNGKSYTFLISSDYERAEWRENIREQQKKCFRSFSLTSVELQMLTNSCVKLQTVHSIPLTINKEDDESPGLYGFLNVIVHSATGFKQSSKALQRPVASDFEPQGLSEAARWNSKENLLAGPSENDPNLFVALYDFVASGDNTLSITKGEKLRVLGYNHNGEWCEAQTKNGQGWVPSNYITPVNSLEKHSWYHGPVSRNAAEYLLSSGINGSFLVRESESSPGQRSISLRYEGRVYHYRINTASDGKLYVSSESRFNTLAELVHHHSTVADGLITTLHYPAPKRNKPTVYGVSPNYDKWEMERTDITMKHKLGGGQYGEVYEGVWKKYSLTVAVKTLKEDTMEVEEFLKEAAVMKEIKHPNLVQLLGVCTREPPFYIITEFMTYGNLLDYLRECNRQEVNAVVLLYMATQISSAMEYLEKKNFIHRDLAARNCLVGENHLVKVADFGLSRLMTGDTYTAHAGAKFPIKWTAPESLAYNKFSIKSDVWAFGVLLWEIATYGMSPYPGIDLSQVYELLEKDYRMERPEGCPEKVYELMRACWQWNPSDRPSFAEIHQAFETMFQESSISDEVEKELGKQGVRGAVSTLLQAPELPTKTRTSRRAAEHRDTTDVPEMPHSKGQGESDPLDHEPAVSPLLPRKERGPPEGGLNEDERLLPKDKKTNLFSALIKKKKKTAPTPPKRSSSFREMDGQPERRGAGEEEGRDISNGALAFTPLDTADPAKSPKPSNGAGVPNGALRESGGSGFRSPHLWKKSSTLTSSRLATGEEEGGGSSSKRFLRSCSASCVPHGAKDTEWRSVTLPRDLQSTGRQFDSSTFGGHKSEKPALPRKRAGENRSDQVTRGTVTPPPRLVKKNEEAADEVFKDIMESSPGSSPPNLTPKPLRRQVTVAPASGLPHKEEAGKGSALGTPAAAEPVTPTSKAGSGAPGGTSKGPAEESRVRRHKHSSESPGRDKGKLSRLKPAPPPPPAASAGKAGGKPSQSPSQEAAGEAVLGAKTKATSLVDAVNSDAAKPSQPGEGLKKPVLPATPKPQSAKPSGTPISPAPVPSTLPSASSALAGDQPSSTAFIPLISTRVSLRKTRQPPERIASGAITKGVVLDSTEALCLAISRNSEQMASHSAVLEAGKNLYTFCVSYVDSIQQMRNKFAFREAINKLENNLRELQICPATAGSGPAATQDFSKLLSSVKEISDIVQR

SMILES	DC50 (BCR-ABL) [nM]	IC50 [1] [nM]	DC50 (ALK protein) [nM]	DC50 (nM)/ SR cell line (ALK protein)	IC50 (SR cells) [nM]
Cc1nc(Nc2ncc(C(=O)Nc3c(C)cccc3Cl)s2)cc(N2CCN(CCCSc3cccc4c3C(=O)N(C3CCC(=O)NC3=O)C4=O)CC2)n1 (centres unmarked) [SIAIS172106, N-(2-chloro-6-methylphenyl)-2-((6-(4-(3-((2-(2,6-dioxopiperidin-3-yl)-1,3-dioxoisoindolin-4-yl)thio)propyl)piperazin-1-yl)-2-methylpyrimidin-4-yl)amino)thiazole-5-carboxamide]	< 3	0.83			
COc1cc(N2CCC(N3CCN(C(=O)CCSc4cccc5c4CN(C4CCC(=O)NC4=O)C5=O)CC3)CC2)ccc1Nc1ncc(Cl)c(Nc2ccccc2P(C)(C)=O)n1 (centres unmarked) [SIAIS219068, 3-(4-((3-(4-(1-(4-((5-chloro-4-((2-(dimethylphosphoryl)phenyl)amino)pyrimidin-2-yl)amino)-3-methoxyphenyl)piperidin-4-yl)piperazin-1-yl)-3-oxopropyl)thio)-1-oxoisoindolin-2-yl)piperidine-2,6-dione]			1 to 10		1.7 ± 0.8
COc1cc(N2CCC(N3CCN(C(=O)CCCCCSc4cccc5c4CN(C4CCC(=O)NC4=O)C5=O)CC3)CC2)ccc1Nc1ncc(Cl)c(Nc2ccccc2P(C)(C)=O)n1 (centres unmarked) [SIAIS219071, 3-(4-((6-(4-(1-(4-((5-chloro-4-((2-(dimethylphosphoryl)phenyl)amino)pyrimidin-2-yl)amino)-3-methoxyphenyl)piperidin-4-yl)piperazin-1-yl)-6-oxohexyl)thio)-1-oxoisoindolin-2-yl)piperidine-2,6-dione]				0.01~10 nM	0.6 ± 0.4
COc1cc(N2CCC(N3CCN(C(=O)CCCCCCSc4cccc5c4CN(C4CCC(=O)NC4=O)C5=O)CC3)CC2)ccc1Nc1ncc(Cl)c(Nc2ccccc2P(C)(C)=O)n1 (centres unmarked) [SIAIS219072, 3-(4-((7-(4-(1-(4-((5-chloro-4-((2-(dimethylphosphoryl)phenyl)amino)pyrimidin-2-yl)amino)-3-methoxyphenyl)piperidin-4-yl)piperazin-1-yl)-7-oxoheptyl)thio)-1-oxoisoindolin-2-yl)piperidine-2,6-dione]			0.1 to 10		0.8 ± 0.5

Further lines, with some results ahead:

DC50 (BCR-ABL) [nM]	IC50 [1] [nM]	DC50 (ALK protein) [nM]	DC50 (nM)/ SR cell line (ALK protein)	SMILES	IC50 (SR cells) [nM]
		0.1 to 10		COc1cc(N2CCC(N3CCN(C(=O)CSc4cccc5c4CN(C4CCC(=O)NC4=O)C5=O)CC3)CC2)ccc1Nc1ncc(Cl)c(Nc2ccccc2P(C)(C)=O)n1 (centres unmarked) [SIAIS219067, 3-(4-((2-(4-(1-(4-((5-chloro-4-((2-(dimethylphosphoryl)phenyl)amino)pyrimidin-2-yl)amino)-3-methoxyphenyl)piperidin-4-yl)piperazin-1-yl)-2-oxoethyl)thio)-1-oxoisoindolin-2-yl)piperidine-2,6-dione]	2.4 ± 1.4
		0.1 to 10		COc1cc(N2CCC(N3CCN(C(=O)CCCSc4cccc5c4CN(C4CCC(=O)NC4=O)C5=O)CC3)CC2)ccc1Nc1ncc(Cl)c(Nc2ccccc2P(C)(C)=O)n1 (centres unmarked) [SIAIS219069, 3-(4-((4-(4-(1-(4-((5-chloro-4-((2-(dimethylphosphoryl)phenyl)amino)pyrimidin-2-yl)amino)-3-methoxyphenyl)piperidin-4-yl)piperazin-1-yl)-4-oxobutyl)thio)-1-oxoisoindolin-2-yl)piperidine-2,6-dione]	0.7 ± 0.3
		0.1 to 10		COc1cc(N2CCC(N3CCN(C(=O)CCCCSc4cccc5c4CN(C4CCC(=O)NC4=O)C5=O)CC3)CC2)ccc1Nc1ncc(Cl)c(Nc2ccccc2P(C)(C)=O)n1 (centres unmarked) [SIAIS219070, 3-(4-((5-(4-(1-(4-((5-chloro-4-((2-(dimethylphosphoryl)phenyl)amino)pyrimidin-2-yl)amino)-3-methoxyphenyl)piperidin-4-yl)piperazin-1-yl)-5-oxopentyl)thio)-1-oxoisoindolin-2-yl)piperidine-2,6-dione]	0.5 ± 0.3
